Test results from article PMC11724075, “Small-molecule-induced ERBB4 activation to treat heart failure” (Nature Communications, 2025).
Several values for one entry are separate records, joined by “and”; a condition that tells them apart may be missing. Equal values may be shown once.

Key:
iAMs = test: H2O2-induced cell death assay in iAMs (Toxilight), also with LY294002
Method: Subsequently, H2O2 (100 µM; Merck, H1009) was added and the cells were incubated for 4 h at 37 °C. All wells contained DMSO at a final concentration of 0.9%. […] After incubation at RT for 5 min, luminescence was measured using the Luminoskan Ascent.

ERBB4/ERBB4 = biological target: T1, ERBB4/ERBB4 (Homo sapiens, UniProt Q15303); test: PathHunter U2OS ERBB4/ERBB4 dimerization assay, 96-well dose-response; type: cell-based; details: for ERBB4/ERBB4 dimerization signal: relative to signal with 0.1 µM NRG1, single biological replicates; for EC50: Fig. 1 panels b, f-l
T1 construct: host or cells: U2OS (osteosarcoma cells), PathHunter engineered line
T1 sequence (Q15303 26-1308): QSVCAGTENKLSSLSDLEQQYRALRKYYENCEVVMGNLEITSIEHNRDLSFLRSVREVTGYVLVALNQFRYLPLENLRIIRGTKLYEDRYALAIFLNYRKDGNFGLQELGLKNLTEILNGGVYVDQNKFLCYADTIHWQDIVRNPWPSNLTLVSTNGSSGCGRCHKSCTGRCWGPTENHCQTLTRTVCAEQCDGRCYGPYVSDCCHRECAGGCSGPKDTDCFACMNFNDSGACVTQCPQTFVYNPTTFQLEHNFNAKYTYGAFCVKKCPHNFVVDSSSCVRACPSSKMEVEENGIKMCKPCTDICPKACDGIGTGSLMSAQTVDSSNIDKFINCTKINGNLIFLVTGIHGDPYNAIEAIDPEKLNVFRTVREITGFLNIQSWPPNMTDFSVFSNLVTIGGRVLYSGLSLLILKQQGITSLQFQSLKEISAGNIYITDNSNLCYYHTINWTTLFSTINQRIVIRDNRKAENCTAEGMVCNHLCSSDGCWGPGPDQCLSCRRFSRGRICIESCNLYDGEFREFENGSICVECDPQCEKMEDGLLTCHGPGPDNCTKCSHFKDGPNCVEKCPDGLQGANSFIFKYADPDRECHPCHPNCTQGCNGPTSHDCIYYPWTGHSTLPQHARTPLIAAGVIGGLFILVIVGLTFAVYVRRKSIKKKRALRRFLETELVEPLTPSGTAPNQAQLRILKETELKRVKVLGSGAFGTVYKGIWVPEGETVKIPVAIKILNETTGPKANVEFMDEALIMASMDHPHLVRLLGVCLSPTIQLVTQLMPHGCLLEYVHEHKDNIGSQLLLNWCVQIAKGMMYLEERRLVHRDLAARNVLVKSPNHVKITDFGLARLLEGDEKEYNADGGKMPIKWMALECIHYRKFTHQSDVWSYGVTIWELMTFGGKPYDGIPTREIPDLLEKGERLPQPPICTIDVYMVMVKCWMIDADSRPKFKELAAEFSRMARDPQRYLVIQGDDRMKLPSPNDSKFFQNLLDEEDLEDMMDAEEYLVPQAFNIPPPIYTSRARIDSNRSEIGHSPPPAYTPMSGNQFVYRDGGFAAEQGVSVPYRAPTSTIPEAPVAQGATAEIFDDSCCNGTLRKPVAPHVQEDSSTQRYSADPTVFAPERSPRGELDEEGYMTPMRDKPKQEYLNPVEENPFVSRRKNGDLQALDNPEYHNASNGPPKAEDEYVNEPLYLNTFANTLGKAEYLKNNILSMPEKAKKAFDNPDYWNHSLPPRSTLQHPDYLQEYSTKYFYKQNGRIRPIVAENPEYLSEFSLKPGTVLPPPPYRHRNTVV
T1 sequence (Q15303 26-1308): as above
Method: PathHunter U2OS ERBB4/ERBB4 (osteosarcoma cells; Eurofins, 93-0961C3), U2OS ERBB2/ERBB4 (osteosarcoma cells; Eurofins, 493-0960C3), ERBB2/ERBB3 (osteosarcoma cells; Eurofins, 93-1042C3) and ERBB1/ERBB1 (osteosarcoma cells; Eurofins, 93-0989C3) dimerization cell lines were cultured according to the manufacturer’s instructions. Briefly, cells were cultured in Cell Culture Reagent 103 (Eurofins, 92-3103 G) supplemented with 250 µg/mL Hygromycin B (Eurofins, 92-0029) and 500 µg/mL G418 (Eurofins, 92-0030), and were maintained at 37 °C in humidified atmosphere of 5% CO2. HCFs (Innoprot, P10454) were cultured in fibroblast medium (Innoprot, P60108) supplemented with 10% (v/v) fetal bovine serum (FBS, Innoprot), 10% (v/v) fibroblast growth supplement (Innoprot), and 1% (v/v) penicillin/streptomycin solution (Innoprot). iAMs[33] (kindly provided by LUMC) were cultured in Advanced DMEM F-12 (Thermo Fisher Scientific, 12634028) supplemented with 2% (v/v) heat-inactivated FBS (Thermo Fisher Scientific, 10270106), 1% (v/v) penicillin/streptomycin (10,000 units/mL and 10 mg/mL respectively, Thermo Fisher Scientific, 15140122), 1× GlutaMAX (Thermo Fisher Scientific, 35050061), and 100 ng/mL doxycycline (Tocris, 4090) for proliferation. To induce differentiation, iAMs were transferred to medium without doxycycline.
U2OS ERBB4/ERBB4 dimerization cells were seeded at a density of 5 × 10^4 cells/well in 100 µL Cell Plating 0 Reagent, in white 96-well plates (PerkinElmer, 6005680) and incubated for 24 h at 37 °C, 5% CO2. […] Next, 110 µL PathHunter Flash Detection Reagent was added to each well and incubated at RT for 1 h after which the luminescence signal was measured using the Luminoskan Ascent (Thermo Fisher Scientific). […] The same experimental set-up was used for the U2OS ERBB2/ERBB4, U2OS ERBB2/ERBB3 and U2OS ERBB1/ERBB1 dimerization cell lines.
Category Parameter Description
Assay Type of assay PathHunter Dimerization assays provide a robust, highly sensitive and easy-to-use cell-based functional assay to study various protein activities in a cell. The assay s use
Enzyme Fragment Complementation technology, where the b-galactosidase (b-gal) enzyme is split into two fragments, ProLink and Enzyme Acceptor. Independently these fragments have no b-gal activity. However, when forced to complement through protein-protein interactions, they form an active b-gal enzyme. The PathHunter Dimerization assay detects ligand induced dimerization of two subunits of a receptor-dimer pair. The cells have been engineered to co-express one receptor subunit (ERBB4) fused to Enzyme
Donor, and a second dimer partner (ERBB4) fused to Enzyme Acceptor. Binding of an agonist to one receptor subunit induces it to interact with its dimer partner, forcing complementation of the two enzyme […]
functional enzyme that hydrolyzes a substrate to generate a chemiluminescent signal.
Target ErbB4 receptor (RTK receptor)
Primary measurement Detection of chemiluminescent signal, induced by small-molecule ErbB4 agonists
Key reagents PathHunter Dimerization ErbB4/ErbB4 Cell
Line (93-0961C3) - PathHunter Flash
Detection Kit (03 -0247) - AssayComplete Cell
AssayComplete Cell Detachment Reagent
(92-0009) - AssayComplete Thawing Reagent
T3 (92-4103TR) - AssayComplete Freezing
Assay protocol https://www.discoverx.com/catalog/pathhun

SMILES | total cell death of iAMs (iAMs; 100 µM H2O2) | total cell death of iAMs, validation H2O2 (iAMs; H2O2 vs Vehicle, single replicates) | total cell death of iAMs (iAMs; H2O2/Veh + LY294002 (20 µM), single replicates) | total cell death of iAMs (iAMs; Veh + LY294002 (20 µM), no H2O2, single replicates) | effect of LY294002 pretreatment on pro-survival effect of EF-1 (in words) (iAMs; iAMs treated with H2O2) | ERBB4/ERBB4 dimerization signal (ERBB4/ERBB4; 3.125e-8 M) | ERBB4/ERBB4 dimerization signal (ERBB4/ERBB4; 6.25e-8 M) | ERBB4/ERBB4 dimerization signal (ERBB4/ERBB4; 1.25e-7 M) | ERBB4/ERBB4 dimerization signal (ERBB4/ERBB4; 2.5e-7 M) | ERBB4/ERBB4 dimerization signal (ERBB4/ERBB4; 5e-7 M) | ERBB4/ERBB4 dimerization signal (ERBB4/ERBB4; 1e-6 M) | ERBB4/ERBB4 dimerization signal (ERBB4/ERBB4; 2e-6 M) | ERBB4/ERBB4 dimerization signal (ERBB4/ERBB4; 4e-6 M) | ERBB4/ERBB4 dimerization signal (ERBB4/ERBB4; 8e-6 M) | ERBB4/ERBB4 dimerization signal (ERBB4/ERBB4; 1.6e-5 M) | ERBB4/ERBB4 dimerization signal (ERBB4/ERBB4; 3.2e-5 M) | EC50 (ERBB4/ERBB4) | induction of ERBB4 dimerization (in words) (ERBB4/ERBB4)
OO [Compound H2O2, hydrogen peroxide, reference compound] | 62% | 48.19 and 54.13 and 68.52 and 60.96 and 64.53 and 71.34 and 65.79 and 69.72 and 69.16 and 66.75 and 64.62 and 50.66 and 53.52 and 64.15 | – | – | – | – | – | – | – | – | – | – | – | – | – | – | – | –
O=c1cc(N2CCOCC2)oc2c(-c3ccccc3)cccc12 [LY294002, reference compound] | – | – | 32.812 and 23.1247 and 24.542 and 32.4283 | 4.366 and 3.706 and 3.828 and 4.745 | blocked the pro-survival effect of EF-1 | – | – | – | – | – | – | – | – | – | – | – | – | –
CC(Sc1nc2ccccc2c(=O)n1C1CCCC1)C(=O)N(C)c1ccccc1 (stereo not drawn) [EF-3] | – | – | – | – | – | 0 | -1.21 and 2.4 and -0.0725 | -1.21 and 2.26 and 0.6885 | -1.52 and 3.09 and -0.0015 | -1.8 and 4 and -1.488 | -0.91 and 4.12 and -1.3115 | -2.34 and 4.47 and -0.737 | -2.82 and 3.65 and 0.377 | -2.1 and 3.98 and 3.507 | -0.15 and 7.88 and 11.189 | 10.32 and 12.81 and 17.0765 | 15.9 µM | –
O=C1NCCCCC1Sc1nc2sc3c(c2c(=O)n1C1CCCC1)CCCC3 (stereo not drawn) [EF-5] | – | – | – | – | – | 0 | 0.55 and -5.82 and -1.2625 and -2.273 | -0.81 and -3.79 and -1.2155 and 0.9982 | 2.18 and -1.68 and -1.408 and 0.7189 | 0.6 and -0.22 and -2.045 and 0.5619 | 1.62 and -1.86 and -1.923 and 1.909 | 0.85 and -0.68 and -0.804 and 3.362 | 1.61 and 5.16 and 4.378 and 4.178 | 4.54 and 3.781 and 4.611 | 16.34 and 17.63 and 4.256 and 4.3885 | 15.88 and 18.62 and 11.2465 and 8.67 | 6.8 µM | induced ERBB4 dimerization in a concentration-dependent manner
CC(C)n1c(SC(C(=O)NC2CC2)c2ccccc2)nc2sc3c(c2c1=O)CCC3 (stereo not drawn) [EF-4] | – | – | – | – | – | 0 | -0.82 and -1.6 and 0.98 and -1.282 and -1.385 | -1.06 and 0.03 and 3.38 and -1.705 and 1.217 | 0.06 and -1.83 and 3.79 and -0.533 and -0.2429 | 0.37 and -1.62 and 3.34 and -1.138 and -0.1012 | -0.43 and -1.64 and 5.89 and 0.03433 and 4.575 | 0.21 and 0.63 and 6.37 and 2.286 and 6.859 | 2.3 and -0.27 and 8.83 and 5.465 and 8.345 | 3.99 and 2.72 and 14.5 and 12.0003 and 11.0326 | 10.7 (2×) and 28.43 and 14.396 and 16.9022 | 14.22 and 10.37 and 32.96 and 14.248 and 12.7415 | 7.9 µM | –
Cc1sc2nc(SCC(=O)NC(C)(C#N)C(C)C)n(C3CCCC3)c(=O)c2c1C (stereo not drawn) [EF-8] | – | – | – | – | – | 0 | -2.398 and 2.948 and -2.16 and -2.631 | -3.058 and 0.945 and -1.747 and 1.488 | -2.005 and -2.555 and -0.053 and 1.532 | -2.09 and -2.305 and 2.13 and 0.7408 | -1.274 and -2.984 and 1.804 and 0.1664 | -1.378 and -1.267 and 1.368 and 2.734 | -1.56 and -0.487 and 3.629 and 7.521 | -0.129 and 2.382 and 5.053 and 7.016 | 5.735 and 10.567 and 10.209 and 8.435 | 13.012 and 24.912 and 17.432 | 14 µM | induced ERBB4 dimerization in a concentration-dependent manner
CC(=O)c1ccc(NC(=O)C(C)Sc2nc3ccccc3c(=O)n2C2CCCC2)cc1 (stereo not drawn) [EF-2] | – | – | – | – | – | 0 | 2.15 and 4.6 and 0.468 and 1.148 | 3.45 and 2.29 and 0.641 and 1.187 | 4.04 and 4.36 and 1.213 and -1.342 | 1.37 and 3.12 and 2.49 and 0.6545 | 2.5 and 5.02 and 2.238 and 2.209 | 4.33 and 4.8 and 3.759 and 4.682 | 3.95 and 4.91 and 4.578 and 5.322 | 8.72 and 7.12 and 6.167 and 6.988 | 9.4 and 10.69 and 8.539 and 7.868 | 12.78 and 12.75 and 7.517 and 9.504 | 3.3 µM | –
CC(Sc1nc2ccccc2c(=O)n1C1CCCC1)c1nc2ccccc2n1C(F)F (stereo not drawn) [EF-7] | – | – | – | – | – | 0 | 1.834 and 3.035 and 0.03 and -1.937 | -0.545 and 2.505 and -0.7885 and 2.028 | 4.185 and 4.81 and -0.3825 and 0.1978 | -2.369 and -1.66 and -2.1805 and 0.9417 | -1.082 and -1.615 and -1.204 and 2.348 | -0.26 and -0.926 and -0.8585 and 4.47 | 0.729 and 3.237 and 0.665 and 4.903 | 3.996 and 7.56 and 2.421 and 5.8011 | 6.204 and 12.704 and 5.9735 and 4.731 | 9.166 and 15.395 and 6.6065 and 4.169 | 4.4 µM | induced ERBB4 dimerization in a concentration-dependent manner
Cc1sc2nc(SC(C)C(=O)Nc3sccc3C(N)=O)n(CC(C)C)c(=O)c2c1C (stereo not drawn) [EF-6] | – | – | – | – | – | 0 | -10.54 and 0.126 and -1.899 | -0.74 and -11.14 and 0.573 and -2.081 | -11.05 and 1.316 and 0.08162 | -1.14 and -8.91 and 2.656 and 0.4928 | -7.05 and 2.748 and 1.042 | -1.29 and -3.55 and 2.61 and 5.158 | 3.35 and 5.191 and 6.31 | 7.22 and 8.65 and 7.634 and 6.661 | 15.88 and 10.304 and 5.283 | 10.39 and 15.72 and 13.149 and 5.2549 | 7.4 µM | induced ERBB4 dimerization in a concentration-dependent manner
